Reference: ChEMBL document CHEMBL1143085, “Synthesis and in vitro antimycobacterial activity of B-ring modified diaryl ether InhA inhibitors” (Bioorg Med Chem Lett, 2008)
≈ marks a conversion by molar mass, not a printed value.

What was measured:
[1] = target: T1, Enoyl-[acyl-carrier-protein] reductase [NADH] (Mycobacterium tuberculosis, UniProt P9WGR1)
T1 sequence (P9WGR1 whole entry): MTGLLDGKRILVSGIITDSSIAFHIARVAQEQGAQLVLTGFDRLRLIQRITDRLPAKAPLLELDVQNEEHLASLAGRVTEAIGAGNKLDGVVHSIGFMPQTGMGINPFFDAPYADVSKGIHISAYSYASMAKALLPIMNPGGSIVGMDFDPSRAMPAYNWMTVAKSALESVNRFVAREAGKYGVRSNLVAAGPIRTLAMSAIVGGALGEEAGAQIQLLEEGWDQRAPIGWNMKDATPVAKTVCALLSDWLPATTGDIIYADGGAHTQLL
Description: Inhibition of Mycobacterium tuberculosis H37RV InhA

[2] = system: Mycobacterium tuberculosis; assay: Antimicrobial activity against Mycobacterium tuberculosis H37RV; format: functional
[3] = Partition coefficient, log P of the compound; format: physicochemical; details: octanol/water
[4] = target: T1, Enoyl-[acyl-carrier-protein] reductase [NADH]; assay: Inhibition of 100 nM Mycobacterium tuberculosis H37RV InhA

With `CCCCCCc1ccc(Oc2ncccn2)c(O)c1` the Ki [1] was 1 nM, the MIC90 [2] was 100 mg/L (≈ 367 µM) and the logP ([3]; read-out: LogP) was 4.46.

`CCCCCCc1ccc(Oc2cnccn2)c(O)c1` gave a Ki [1] of 1 nM, an MIC90 [2] of 6.25 mg/L (≈ 22.9 µM) and a logP ([3]; read-out: LogP) of 4.76.

Work on `CCCCCCc1ccc(Oc2nc(OC)cc(OC)n2)c(O)c1` yielded a Ki [1] of 1 nM and an MIC90 [2] of 100 mg/L (≈ 301 µM).

For `CCCCCCc1ccc(Oc2ccncc2)c(O)c1`, the Ki [1] was 1 nM, the MIC90 [2] was 3.13 mg/L (≈ 11.5 µM) and the logP ([3]; read-out: LogP) was 4.93.

With `CCCCCCc1ccc(Oc2ccc(NC(=O)c3ccno3)cc2)c(O)c1` the Ki [1] was 1 nM, the MIC90 [2] was > 200 mg/L and the logP ([3]; read-out: LogP) was 5.15.

For `CCCCCCc1ccc(Oc2ccc(CN3CCN(C)CC3)cc2)c(O)c1`, the Ki [1] was 1 nM and the MIC90 [2] was > 100 mg/L.

In the case of `CCCCCCc1ccc(Oc2ccc(NC(=O)C(=O)O)cc2)c(O)c1`, the Ki [1] is reported as 1 nM and the MIC90 [2] is reported as > 200 mg/L.

With `CCCCCCc1ccc(Oc2ccc(NC(C)=O)cc2)c(O)c1` the Ki [1] was 1 nM and the MIC90 [2] was 50 mg/L (≈ 153 µM).

For `CCCCCCc1ccc(Oc2cccc(NC(=O)C(=O)O)c2)c(O)c1`, the Ki [1] was 1 nM, the IC50 [4] was 580 nM and the MIC90 [2] was 130 mg/L (≈ 364 µM).

With `CCCCCCc1ccc(Oc2ccc(N)cc2)c(O)c1` the MIC90 [2] was 12.5 mg/L (≈ 43.8 µM) and the logP ([3]; read-out: LogP) was 4.93.

In the case of `CCCCCCc1ccc(Oc2ccccc2NC(C)=O)c(O)c1`, the Ki [1] is reported as 1 nM, the IC50 [4] is reported as 1550 nM and the MIC90 [2] is reported as > 200 mg/L. For the same compound, the logP ([3]; read-out: LogP) was 5.28.

Work on `CCCCCCc1ccc(Oc2ccccc2[N+](=O)[O-])c(O)c1` yielded a Ki [1] of 1 nM, an MIC90 [2] of 12.5 mg/L (≈ 39.6 µM) and a logP [3] of 5.5.

For `CCCCCCc1ccc(Oc2cccc([N+](=O)[O-])c2)c(O)c1`, the MIC90 [2] was 12.5 mg/L (≈ 39.6 µM).

With `CCCCCCc1ccc(Oc2ccc([N+](=O)[O-])cc2)c(O)c1` the Ki [1] was 1 nM, the IC50 [4] was 90 nM and the MIC90 [2] was 25 mg/L (≈ 79.3 µM). The logP [3] was 5.64.

Compound `CCCCCCc1ccc(Oc2ccccc2N)c(O)c1` has an MIC90 [2] of 3.13 mg/L (≈ 11 µM) and a logP ([3]; read-out: LogP) of 5.27.

With `CCCCCCc1ccc(Oc2ccccn2)c(O)c1` the Ki [1] was 1 nM, the IC50 [4] was 11500 nM and the logP ([3]; read-out: LogP) was 5.06.

Compound `CCCCCCc1ccc(Oc2ccccc2)c(O)c1` has a Ki [1] of 1 nM, an MIC90 [2] of 2.1 mg/L (≈ 7.77 µM) and a logP ([3]; read-out: LogP) of 5.76.

`CCCCCCc1ccc(Oc2cccc(NC(C)=O)c2)c(O)c1` showed a Ki [1] of 1 nM, an IC50 [4] of 5600 nM and an MIC90 [2] of 100 mg/L (≈ 305 µM).

`CCCCCCc1ccc(Oc2cccc(N)c2)c(O)c1` showed a Ki [1] of 1 nM and an MIC90 [2] of 100 mg/L (≈ 350 µM).

For `CCCCCCc1ccc(Oc2cccc(NC(=O)c3ccno3)c2)c(O)c1`, the Ki [1] was 1 nM, the IC50 [4] was 1200 nM and the MIC90 [2] was > 200 mg/L. The logP ([3]; read-out: LogP) was 5.22.

For `CCCCCCc1ccc(Oc2cccnc2)c(O)c1`, the Ki [1] was 1 nM and the MIC90 [2] was 3.13 mg/L (≈ 11.5 µM).

`CCCCCCc1ccc(Oc2ccccc2NC(=O)C(=O)O)c(O)c1` gave a Ki [1] of 1 nM, an IC50 [4] of 2360 nM and an MIC90 [2] of 100 mg/L (≈ 280 µM).

In the case of `CCCCCCc1ccc(Oc2ccccc2CN2CCN(C)CC2)c(O)c1`, the Ki [1] is reported as 1 nM.

In the case of `CCCCCCc1ccc(Oc2ccccc2NC(=O)c2ccno2)c(O)c1`, the Ki [1] is reported as 1 nM, the MIC90 [2] is reported as > 200 mg/L and the logP ([3]; read-out: LogP) is reported as 5.76.

Compound `CCCCCCc1ccc(Oc2ncccn2)c(OC)c1` has a Ki [1] of 1 nM and an MIC90 [2] of 75 mg/L (≈ 262 µM).
